# Test results reported in ChEMBL document CHEMBL3885861, “Open TG-GATES”.
# Organism: Rattus norvegicus
# Assay: Open TG-GATES - Regimen: Daily Repeat
# Type: toxicity, organism-based, Sprague-Dawley
# Design: regimen Daily Repeat, gender Male, age 6 weeks
# Settings: in vivo, po, 15 mg/kg, route gavage, dose level Middle; for APTT / Bas / Eos / Fbg / Hb / Ht / Lym / MCH / MCHC / MCV / Mono / Neu / PT / Plat / RBC / Ret / WBC: tissue Blood; for KIDNEY_L / KIDNEY_R / KIDNEY_TOTAL: tissue Kidney; for LIVER: tissue Liver; for A/G / ALP / ALT / AST / BUN / CRE / Ca / Cl / DBIL / GLC / IP / K / LDH / Na / PL / RALB / TBIL / TC / TG / TP / gamma-GTP: tissue Plasma
structure (smiles),measurement,setting,value
CC(=N)S [THIOACETAMIDE],TERMINAL_BW,"72 h, time 3 day",220.4 g
same,APTT,"72 h, time 3 day",16.6 s
same,Bas,"72 h, time 3 day",0%
same,Eos,"72 h, time 3 day",1%
same,Fbg,"72 h, time 3 day",254.2 mg/dL
same,Hb,"72 h, time 3 day",14 g/dL
same,Ht,"72 h, time 3 day",42.5%
same,Lym,"72 h, time 3 day",84%
same,MCH,"72 h, time 3 day",20.9 pg
same,MCHC,"72 h, time 3 day",33.1%
same,MCV,"72 h, time 3 day",63.2 fL
same,Mono,"72 h, time 3 day",5.2%
same,Neu,"72 h, time 3 day",9.6%
same,PT,"72 h, time 3 day",12.2 s
same,Plat,"72 h, time 3 day",113 x10_4/uL
same,RBC,"72 h, time 3 day",672.4 x10_4/ul
same,Ret,"72 h, time 3 day",5.5%
same,WBC,"72 h, time 3 day",167.1 x10_2/uL
same,KIDNEY_L,"72 h, time 3 day",1 g
same,KIDNEY_R,"72 h, time 3 day",1 g
same,KIDNEY_TOTAL,"72 h, time 3 day",1.9 g
same,LIVER,"72 h, time 3 day",11.1 g
same,A/G,"72 h, time 3 day",2.1
same,ALP,"72 h, time 3 day",896 IU/L
same,ALT,"72 h, time 3 day",29.2 IU/L
same,AST,"72 h, time 3 day",57.2 IU/L
same,BUN,"72 h, time 3 day",17 mg/dL
same,CRE,"72 h, time 3 day",0.5 mg/dL
same,Ca,"72 h, time 3 day",10.5 mg/dL
same,Cl,"72 h, time 3 day",105.8 meq/L
same,DBIL,"72 h, time 3 day",0.02 mg/dL
same,GLC,"72 h, time 3 day",176.2 mg/dL
same,IP,"72 h, time 3 day",7.5 mg/dL
same,K,"72 h, time 3 day",5 meq/L
same,LDH,"72 h, time 3 day",92.8 IU/L
same,Na,"72 h, time 3 day",137.6 meq/L
same,PL,"72 h, time 3 day",159.4 mg/dL
same,RALB,"72 h, time 3 day",3.9 g/dL
same,TBIL,"72 h, time 3 day",0.3 mg/dL
same,TC,"72 h, time 3 day",76.4 mg/dL
same,TG,"72 h, time 3 day",148 mg/dL
same,TP,"72 h, time 3 day",5.8 g/dL
same,gamma-GTP,"72 h, time 3 day",2.4 IU/L
same,TERMINAL_BW,"[…], time 7 day",248.4 g
same,TERMINAL_BW,"[…], time 14 day",276.3 g
same,TERMINAL_BW,"[…], time 28 day",324.2 g
same,APTT,"[…], time 7 day",16.4 s
same,Bas,"[…], time 7 day",0%
same,Eos,"[…], time 7 day",1%
same,Fbg,"[…], time 7 day",247.2 mg/dL
same,Hb,"[…], time 7 day",13.9 g/dL
same,Ht,"[…], time 7 day",42.1%
same,Lym,"[…], time 7 day",82.8%
same,MCH,"[…], time 7 day",20.8 pg
same,MCHC,"[…], time 7 day",33%
same,MCV,"[…], time 7 day",63 fL
same,Mono,"[…], time 7 day",5.4%
same,Neu,"[…], time 7 day",11.2%
same,PT,"[…], time 7 day",12.7 s
same,Plat,"[…], time 7 day",108.4 x10_4/uL
same,RBC,"[…], time 7 day",668.4 x10_4/ul
same,Ret,"[…], time 7 day",4.5%
same,WBC,"[…], time 7 day",170.4 x10_2/uL
same,APTT,"[…], time 14 day",16.4 s
same,Bas,"[…], time 14 day",0%
same,Eos,"[…], time 14 day",1%
same,Fbg,"[…], time 14 day",239.8 mg/dL
same,Hb,"[…], time 14 day",14.7 g/dL
same,Ht,"[…], time 14 day",44%
same,Lym,"[…], time 14 day",79.8%
same,MCH,"[…], time 14 day",19.7 pg
same,MCHC,"[…], time 14 day",33.3%
same,MCV,"[…], time 14 day",59.3 fL
same,Mono,"[…], time 14 day",7.6%
same,Neu,"[…], time 14 day",11.8%
same,PT,"[…], time 14 day",13 s
same,Plat,"[…], time 14 day",111.2 x10_4/uL
same,RBC,"[…], time 14 day",743.4 x10_4/ul
same,Ret,"[…], time 14 day",3.5%
same,WBC,"[…], time 14 day",202.6 x10_2/uL
same,APTT,"[…], time 28 day",16.6 s
same,Bas,"[…], time 28 day",0%
same,Eos,"[…], time 28 day",1%
same,Fbg,"[…], time 28 day",240.2 mg/dL
same,Hb,"[…], time 28 day",15.1 g/dL
same,Ht,"[…], time 28 day",44.7%
same,Lym,"[…], time 28 day",75.4%
same,MCH,"[…], time 28 day",19 pg
same,MCHC,"[…], time 28 day",33.9%
same,MCV,"[…], time 28 day",56.1 fL
same,Mono,"[…], time 28 day",8.6%
same,Neu,"[…], time 28 day",14.8%
same,PT,"[…], time 28 day",11.9 s
same,Plat,"[…], time 28 day",116.1 x10_4/uL
same,RBC,"[…], time 28 day",798.6 x10_4/ul
same,Ret,"[…], time 28 day",3.2%
same,WBC,"[…], time 28 day",149.2 x10_2/uL
same,KIDNEY_L,"[…], time 7 day",1.1 g
same,KIDNEY_R,"[…], time 7 day",1.1 g
same,KIDNEY_TOTAL,"[…], time 7 day",2.2 g
same,KIDNEY_L,"[…], time 14 day",1.2 g
same,KIDNEY_R,"[…], time 14 day",1.2 g
same,KIDNEY_TOTAL,"[…], time 14 day",2.3 g
same,KIDNEY_L,"[…], time 28 day",1.2 g
same,KIDNEY_R,"[…], time 28 day",1.2 g
same,KIDNEY_TOTAL,"[…], time 28 day",2.4 g
same,LIVER,"[…], time 7 day",12.8 g
same,LIVER,"[…], time 14 day",12.7 g
same,LIVER,"[…], time 28 day",14.1 g
same,A/G,"[…], time 7 day",2
same,ALP,"[…], time 7 day",926.6 IU/L
same,ALT,"[…], time 7 day",29.4 IU/L
same,AST,"[…], time 7 day",54.2 IU/L
same,BUN,"[…], time 7 day",19 mg/dL
same,CRE,"[…], time 7 day",0.6 mg/dL
same,Ca,"[…], time 7 day",10.5 mg/dL
same,Cl,"[…], time 7 day",105.6 meq/L
same,DBIL,"[…], time 7 day",0.016 mg/dL
same,GLC,"[…], time 7 day",172.4 mg/dL
same,IP,"[…], time 7 day",7.9 mg/dL
same,K,"[…], time 7 day",5.1 meq/L
same,LDH,"[…], time 7 day",97.4 IU/L
same,Na,"[…], time 7 day",136.2 meq/L
same,PL,"[…], time 7 day",152.6 mg/dL
same,RALB,"[…], time 7 day",4 g/dL
same,TBIL,"[…], time 7 day",0.3 mg/dL
same,TC,"[…], time 7 day",75.6 mg/dL
same,TG,"[…], time 7 day",114.8 mg/dL
same,TP,"[…], time 7 day",5.9 g/dL
same,gamma-GTP,"[…], time 7 day",2.4 IU/L
same,A/G,"[…], time 14 day",2.1
same,ALP,"[…], time 14 day",760.2 IU/L
same,ALT,"[…], time 14 day",26.2 IU/L
same,AST,"[…], time 14 day",47.2 IU/L
same,BUN,"[…], time 14 day",20.4 mg/dL
same,CRE,"[…], time 14 day",0.6 mg/dL
same,Ca,"[…], time 14 day",10.3 mg/dL
same,Cl,"[…], time 14 day",104.8 meq/L
same,DBIL,"[…], time 14 day",0.05 mg/dL
same,GLC,"[…], time 14 day",173.8 mg/dL
same,IP,"[…], time 14 day",7.3 mg/dL
same,K,"[…], time 14 day",4.8 meq/L
same,LDH,"[…], time 14 day",90.2 IU/L
same,Na,"[…], time 14 day",134.2 meq/L
same,PL,"[…], time 14 day",127 mg/dL
same,RALB,"[…], time 14 day",3.9 g/dL
same,TBIL,"[…], time 14 day",0.3 mg/dL
same,TC,"[…], time 14 day",59.4 mg/dL
same,TG,"[…], time 14 day",87.4 mg/dL
same,TP,"[…], time 14 day",5.8 g/dL
same,gamma-GTP,"[…], time 14 day",1.6 IU/L
same,A/G,"[…], time 28 day",2
same,ALP,"[…], time 28 day",660.6 IU/L
same,ALT,"[…], time 28 day",29.8 IU/L
same,AST,"[…], time 28 day",35.4 IU/L
same,BUN,"[…], time 28 day",20.4 mg/dL
same,CRE,"[…], time 28 day",0.6 mg/dL
same,Ca,"[…], time 28 day",10 mg/dL
same,Cl,"[…], time 28 day",105.4 meq/L
same,DBIL,"[…], time 28 day",0.014 mg/dL
same,GLC,"[…], time 28 day",164.8 mg/dL
same,IP,"[…], time 28 day",6.3 mg/dL
same,K,"[…], time 28 day",4.5 meq/L
same,LDH,"[…], time 28 day",114.6 IU/L
same,Na,"[…], time 28 day",134 meq/L
same,PL,"[…], time 28 day",125.4 mg/dL
same,RALB,"[…], time 28 day",3.9 g/dL
same,TBIL,"[…], time 28 day",0.2 mg/dL
same,TC,"[…], time 28 day",60.4 mg/dL
same,TG,"[…], time 28 day",62.4 mg/dL
same,TP,"[…], time 28 day",5.8 g/dL
same,gamma-GTP,"[…], time 28 day",1.6 IU/L
